Columns and labels:
Test in all cases: IC50 for competition of protein binding to Kinobeads
Settings in all cases: assay detail: Kinobeads competition in P. falciparum blood-stage lysate
[1] = target: UniProt P62344
[2] = target: UniProt Q8ILJ7
[3] = target: UniProt Q8ILQ8
[4] = target: UniProt Q8I5D5
[5] = target: UniProt Q8IAR6
[6] = target: UniProt Q8I3T5
[7] = target: UniProt Q8I0W9
[8] = target: UniProt Q8I348
[9] = target: UniProt Q8I3T8
[10] = target: UniProt Q76NM6
[11] = target: UniProt Q8II36
Sequence of UniProt Q8II36 (Q8II36 whole entry): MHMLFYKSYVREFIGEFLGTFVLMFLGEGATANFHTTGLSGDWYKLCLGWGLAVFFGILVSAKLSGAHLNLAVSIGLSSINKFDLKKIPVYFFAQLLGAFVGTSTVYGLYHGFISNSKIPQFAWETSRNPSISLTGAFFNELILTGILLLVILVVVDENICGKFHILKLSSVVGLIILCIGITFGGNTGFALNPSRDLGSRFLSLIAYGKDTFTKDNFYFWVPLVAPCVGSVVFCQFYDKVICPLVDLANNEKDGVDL

[12] = target: UniProt Q8ILP6
[13] = target: UniProt O96259
[14] = target: UniProt Q8ID85
[15] = target: UniProt Q8IHT3
[16] = target: UniProt Q8IJW3
[17] = target: UniProt Q8IL86
[18] = target: UniProt Q8IDV5
[19] = target: UniProt P46468
Sequence of UniProt P46468 (P46468 whole entry): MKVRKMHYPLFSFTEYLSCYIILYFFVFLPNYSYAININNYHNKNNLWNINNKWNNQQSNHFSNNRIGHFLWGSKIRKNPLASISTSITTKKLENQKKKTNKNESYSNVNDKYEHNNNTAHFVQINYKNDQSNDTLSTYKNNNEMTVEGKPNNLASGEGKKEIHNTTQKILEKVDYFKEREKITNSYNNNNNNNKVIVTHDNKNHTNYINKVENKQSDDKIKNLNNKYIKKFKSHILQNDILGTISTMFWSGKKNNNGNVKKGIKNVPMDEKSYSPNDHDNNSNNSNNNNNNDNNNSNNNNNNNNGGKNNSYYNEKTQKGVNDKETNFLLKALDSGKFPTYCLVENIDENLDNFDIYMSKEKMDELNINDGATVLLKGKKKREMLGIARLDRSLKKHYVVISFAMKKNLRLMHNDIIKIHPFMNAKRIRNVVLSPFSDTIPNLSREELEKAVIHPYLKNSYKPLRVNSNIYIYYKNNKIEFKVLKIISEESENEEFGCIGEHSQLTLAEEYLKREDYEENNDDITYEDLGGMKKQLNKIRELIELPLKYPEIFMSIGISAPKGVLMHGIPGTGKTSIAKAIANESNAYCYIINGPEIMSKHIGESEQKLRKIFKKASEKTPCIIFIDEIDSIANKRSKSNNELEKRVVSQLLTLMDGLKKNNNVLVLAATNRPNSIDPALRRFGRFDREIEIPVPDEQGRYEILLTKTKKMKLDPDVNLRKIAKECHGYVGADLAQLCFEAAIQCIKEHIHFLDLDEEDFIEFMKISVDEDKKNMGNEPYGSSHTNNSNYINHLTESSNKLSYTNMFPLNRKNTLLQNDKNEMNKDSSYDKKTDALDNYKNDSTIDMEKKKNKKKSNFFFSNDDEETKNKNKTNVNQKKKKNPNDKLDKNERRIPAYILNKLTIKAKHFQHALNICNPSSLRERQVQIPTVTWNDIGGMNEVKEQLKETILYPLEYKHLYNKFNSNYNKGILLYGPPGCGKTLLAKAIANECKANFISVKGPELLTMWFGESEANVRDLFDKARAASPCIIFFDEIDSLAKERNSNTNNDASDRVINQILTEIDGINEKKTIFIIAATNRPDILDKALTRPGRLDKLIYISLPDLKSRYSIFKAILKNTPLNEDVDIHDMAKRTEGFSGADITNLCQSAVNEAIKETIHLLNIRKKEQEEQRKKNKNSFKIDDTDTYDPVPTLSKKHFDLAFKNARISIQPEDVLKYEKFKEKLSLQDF

[20] = target: UniProt Q8IAY9
[21] = target: UniProt Q8IM71
[22] = target: UniProt C0H4X1
[23] = target: UniProt Q8I5B3
[24] = target: UniProt C0H5J2
[25] = target: UniProt Q8I328
[26] = target: UniProt Q9TY96
Sequence of UniProt Q9TY96 (Q9TY96 whole entry): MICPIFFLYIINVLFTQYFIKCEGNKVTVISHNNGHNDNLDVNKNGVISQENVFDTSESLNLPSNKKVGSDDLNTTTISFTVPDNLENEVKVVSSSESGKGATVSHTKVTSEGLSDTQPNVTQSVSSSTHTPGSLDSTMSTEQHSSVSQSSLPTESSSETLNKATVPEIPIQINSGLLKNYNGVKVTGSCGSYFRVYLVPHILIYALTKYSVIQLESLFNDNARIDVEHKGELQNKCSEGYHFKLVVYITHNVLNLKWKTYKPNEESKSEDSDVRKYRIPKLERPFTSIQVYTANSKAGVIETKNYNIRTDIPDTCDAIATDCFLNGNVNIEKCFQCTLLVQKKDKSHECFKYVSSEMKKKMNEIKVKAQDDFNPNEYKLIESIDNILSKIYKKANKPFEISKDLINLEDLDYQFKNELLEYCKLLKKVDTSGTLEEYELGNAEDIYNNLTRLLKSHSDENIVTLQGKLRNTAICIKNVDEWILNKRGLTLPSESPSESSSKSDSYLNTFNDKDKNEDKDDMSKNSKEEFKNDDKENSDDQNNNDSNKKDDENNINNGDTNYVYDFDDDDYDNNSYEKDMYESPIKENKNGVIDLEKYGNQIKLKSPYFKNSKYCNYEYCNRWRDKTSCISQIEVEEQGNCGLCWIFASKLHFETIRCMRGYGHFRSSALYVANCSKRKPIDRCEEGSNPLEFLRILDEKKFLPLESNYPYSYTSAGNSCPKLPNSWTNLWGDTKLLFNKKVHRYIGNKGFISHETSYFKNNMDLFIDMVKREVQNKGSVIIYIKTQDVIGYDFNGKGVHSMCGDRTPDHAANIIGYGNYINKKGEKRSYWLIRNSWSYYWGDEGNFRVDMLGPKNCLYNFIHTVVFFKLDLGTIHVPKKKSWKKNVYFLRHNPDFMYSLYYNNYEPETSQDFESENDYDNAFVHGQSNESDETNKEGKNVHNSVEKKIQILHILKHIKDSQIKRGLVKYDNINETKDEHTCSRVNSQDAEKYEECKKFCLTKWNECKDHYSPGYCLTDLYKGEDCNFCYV

[27] = target: UniProt C0H517
[28] = target: UniProt Q8IKH8
[29] = target: UniProt Q8IB73
[30] = target: UniProt Q8IIB4
[31] = target: UniProt Q8IFP2
[32] = target: UniProt Q7KQK6
[33] = target: UniProt C6KT96
[34] = target: UniProt Q8ILY8
[35] = target: UniProt Q7KQK0
[36] = target: UniProt Q9U0N4
[37] = target: UniProt Q8II23
[38] = target: UniProt Q8IHN4
[39] = target: UniProt Q8I2U5
[40] = target: UniProt C6KT25
[41] = target: UniProt Q8IC33
[42] = target: UniProt Q8I546
[43] = target: UniProt Q8IM66
[44] = target: UniProt Q8I3I6
[45] = target: UniProt C0H5J9
[46] = target: UniProt Q8IM26
[47] = target: UniProt Q8I274
[48] = target: UniProt Q8I1X5
[49] = target: UniProt Q8IDB8
[50] = target: UniProt Q8IIB6
[51] = target: UniProt Q8IM38
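Note: native unpurified kinases from lysate captured on beads bearing immobilized kinase inhibitors, with bead-bound kinases quantified by mass spectrometry across compound doses.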

Sequence of UniProt P62344 (P62344 whole entry, looked up): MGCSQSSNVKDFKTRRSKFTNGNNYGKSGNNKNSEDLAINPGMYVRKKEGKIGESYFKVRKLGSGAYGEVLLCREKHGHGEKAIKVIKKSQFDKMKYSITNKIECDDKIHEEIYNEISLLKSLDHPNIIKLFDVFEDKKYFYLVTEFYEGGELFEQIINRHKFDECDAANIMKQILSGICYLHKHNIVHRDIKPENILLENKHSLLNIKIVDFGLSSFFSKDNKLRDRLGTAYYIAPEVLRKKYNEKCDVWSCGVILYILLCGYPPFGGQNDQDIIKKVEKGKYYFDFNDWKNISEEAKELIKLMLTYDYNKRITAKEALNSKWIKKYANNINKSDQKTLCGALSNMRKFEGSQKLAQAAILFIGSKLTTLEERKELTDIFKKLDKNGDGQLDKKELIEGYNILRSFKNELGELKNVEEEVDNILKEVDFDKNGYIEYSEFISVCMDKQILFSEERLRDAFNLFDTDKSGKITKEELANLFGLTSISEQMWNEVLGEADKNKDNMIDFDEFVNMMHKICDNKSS
Sequence of UniProt Q76NM6 (Q76NM6 whole entry): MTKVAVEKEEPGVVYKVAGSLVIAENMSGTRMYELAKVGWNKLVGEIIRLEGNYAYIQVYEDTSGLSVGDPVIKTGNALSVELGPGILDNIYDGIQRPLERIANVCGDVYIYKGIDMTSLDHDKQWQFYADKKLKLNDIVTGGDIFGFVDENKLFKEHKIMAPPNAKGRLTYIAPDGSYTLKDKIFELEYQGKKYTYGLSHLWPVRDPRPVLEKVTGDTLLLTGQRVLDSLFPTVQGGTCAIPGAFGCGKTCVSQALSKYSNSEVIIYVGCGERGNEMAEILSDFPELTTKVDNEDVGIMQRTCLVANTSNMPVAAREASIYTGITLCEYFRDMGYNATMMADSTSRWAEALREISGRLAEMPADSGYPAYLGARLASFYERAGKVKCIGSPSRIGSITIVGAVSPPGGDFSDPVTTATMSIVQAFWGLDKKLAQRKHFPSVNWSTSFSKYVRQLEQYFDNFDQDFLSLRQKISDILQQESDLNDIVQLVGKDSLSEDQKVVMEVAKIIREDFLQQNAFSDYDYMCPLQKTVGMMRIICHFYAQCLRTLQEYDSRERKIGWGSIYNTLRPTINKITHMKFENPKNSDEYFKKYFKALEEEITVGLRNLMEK

Q: Which IC50 [1] does the source give for `O=c1[nH]c2ccc(Cl)cc2c(NC2CN3CCC2CC3)c1-c1nc2ccccc2[nH]1` (stereo unspecified) [CHIR-124] here?
A: < 0.0823 µM

Q: What about the IC50 [2] of the same compound?
A: > 20 µM

Q: What about the IC50 [3] of the same compound?
A: > 20 µM

Q: What about the IC50 [4] of the same compound?
A: > 20 µM

Q: What about the IC50 [5] of the same compound?
A: > 20 µM

Q: What about the IC50 [6] of the same compound?
A: > 20 µM

Q: And the IC50 [7]?
A: > 20 µM

Q: What about the IC50 [8] of the same compound?
A: > 20 µM

Q: What about the IC50 [9] of the same compound?
A: > 20 µM

Q: What about the IC50 [10] of the same compound?
A: > 20 µM

Q: And the IC50 [11]?
A: > 20 µM

Q: What about the IC50 [12] of the same compound?
A: > 20 µM

Q: And the IC50 [13]?
A: > 20 µM

Q: What about the IC50 [14] of the same compound?
A: > 20 µM

Q: What about the IC50 [15] of the same compound?
A: > 20 µM

Q: And the IC50 [16]?
A: > 20 µM

Q: And the IC50 [17]?
A: > 20 µM

Q: What about the IC50 [18] of the same compound?
A: > 20 µM

Q: And the IC50 [19]?
A: > 20 µM

Q: And the IC50 [20]?
A: > 20 µM

Q: And the IC50 [21]?
A: > 20 µM

Q: And the IC50 [22]?
A: > 20 µM

Q: What about the IC50 [23] of the same compound?
A: > 20 µM

Q: What about the IC50 [24] of the same compound?
A: > 20 µM

Q: And the IC50 [25]?
A: > 20 µM

Q: And the IC50 [26]?
A: > 20 µM

Q: And the IC50 [27]?
A: > 20 µM

Q: What about the IC50 [28] of the same compound?
A: > 20 µM

Q: And the IC50 [29]?
A: > 20 µM

Q: What about the IC50 [30] of the same compound?
A: > 20 µM

Q: What about the IC50 [31] of the same compound?
A: > 20 µM

Q: And the IC50 [32]?
A: > 20 µM

Q: And the IC50 [33]?
A: > 20 µM

Q: What about the IC50 [34] of the same compound?
A: > 20 µM

Q: And the IC50 [35]?
A: 0.85 µM

Q: And the IC50 [36]?
A: > 20 µM

Q: And the IC50 [37]?
A: > 20 µM

Q: What about the IC50 [38] of the same compound?
A: > 20 µM

Q: And the IC50 [39]?
A: > 20 µM

Q: And the IC50 [40]?
A: > 20 µM

Q: What about the IC50 [41] of the same compound?
A: > 20 µM

Q: And the IC50 [42]?
A: > 20 µM

Q: What about the IC50 [43] of the same compound?
A: > 20 µM

Q: What about the IC50 [44] of the same compound?
A: > 20 µM

Q: And the IC50 [45]?
A: > 20 µM

Q: And the IC50 [46]?
A: > 20 µM

Q: And the IC50 [47]?
A: > 20 µM

Q: What about the IC50 [48] of the same compound?
A: > 20 µM

Q: And the IC50 [49]?
A: > 20 µM

Q: What about the IC50 [50] of the same compound?
A: > 20 µM

Q: What about the IC50 [51] of the same compound?
A: > 20 µM

— the supplement of paper PMC13386468
